According to PubChem BioAssay (NCI):
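48-hour exposure; five concentrations; linearly interpolated endpoints. At the GI50, growth is halved. The concentration for full growth arrest is given as TGI.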

Key:
Experiment in all cases: NCI anticancer screen, dose series, 48 h
TK-10 renal = test system: TK-10 renal
SF-539 CNS = test system: SF-539 CNS
A498 renal = test system: A498 renal
M14 melanoma = test system: M14 melanoma
DU-145 prostate = test system: DU-145 prostate
IGROV1 ovarian = test system: IGROV1 ovarian
NCI-H522 lung = test system: NCI-H522 lung
CCRF-CEM leukemia = test system: CCRF-CEM leukemia

Compound | TGI (TK-10 renal) [µM] | TGI (SF-539 CNS) [µM] | TGI (A498 renal) [µM] | TGI (M14 melanoma) [µM] | TGI (DU-145 prostate) [µM] | TGI (IGROV1 ovarian) [µM] | TGI (NCI-H522 lung) [µM] | TGI (CCRF-CEM leukemia) [µM] | GI50 (TK-10 renal) [µM] | GI50 (SF-539 CNS) [µM] | GI50 (A498 renal) [µM] | GI50 (IGROV1 ovarian) [µM] | GI50 (NCI-H522 lung) [µM] | GI50 (CCRF-CEM leukemia) [µM]
O=c1cc(N=P(c2ccccc2)(c2ccccc2)c2ccccc2)n(-c2ccccc2)c(=O)n1-c1ccccc1 | > 100 | 17.7 | 21.1 | > 100 | > 100 | 58.8 | 37.3 | 82.5 | – | – | – | – | – | –
C/C(CC1C2CCCC1C2)=N\NC(N)=O (stereo unspecified) | > 100 | > 100 | – | > 100 | > 100 | > 100 | > 100 | > 100 | – | – | – | – | – | –
CSc1cc(Cl)c(C)cc1S(=O)(=O)NC(=O)NNc1ccc(Cl)cc1 | – | > 100 | > 100 | > 100 | > 100 | > 100 | > 100 | – | – | – | – | – | – | –
CCCNC(=O)CCC(C)[C@H]1CCC2C3C(C[C@H](OC(C)=O)[C@@]21C)[C@@]1(C)CCC2(C[C@H]1C[C@H]3OC(C)=O)OOC1(CCC(C)CC1)OO2 (stereo partly specified) | 58.8 | 33.8 | 74.5 | > 100 | 21.2 | 4.36 | 33.3 | 2.16 | – | – | – | – | – | –
O=C1C[C@H](Sc2ccccc2)C2(OCCO2)[C@@H](Sc2ccccc2)C1 | 6.96 | 4.05 | > 66.7 | 6.52 | 14.1 | 3.49 | 1.81 | 1.76 | – | – | – | – | – | –
CN(C)c1ccc(C=C2N=C(c3ccccc3)N(c3cc(C(=O)c4ccccc4)ccc3N3C(=O)/C(=C/c4ccc(N(C)C)cc4)N=C3c3ccccc3)C2=O)cc1 | > 100 | 6.05 | > 100 | > 100 | > 100 | > 100 | – | > 100 | – | – | – | – | – | –
COC(=O)[C@]12CC[C@H]3CN(C(=O)OCc4ccccc4)[C@H]([C@H]31)[C@H](c1ccco1)N2S(=O)(=O)c1ccc(C)cc1 | 90.2 | > 100 | 79.7 | 44.6 | > 100 | 57.1 | 45.7 | > 100 | – | – | – | – | – | –
COc1cc(NS(C)(=O)=O)ccc1N1Cc2cnc3ccc4[nH]c(C)cc1c4c23 | > 100 | – | > 100 | > 100 | > 100 | > 100 | 80.7 | > 100 | – | – | – | – | – | –
N#CC(C#N)=CNC(=S)c1ccncc1 | – | 68.4 | > 100 | > 100 | > 100 | > 100 | > 100 | > 100 | – | – | – | – | – | –
CSc1c(C#N)c(N)n2c1C(=O)N(c1ccccc1)C2=S | > 100 | > 100 | 94.3 | > 100 | > 100 | > 100 | 57.7 | > 100 | – | – | – | – | – | –
N#CCCN(CCC#N)c1ccc(/C=C2\N=C(c3ccccc3)N(c3ccc(Cl)cc3)C2=O)cc1 | > 100 | > 100 | > 100 | > 100 | > 100 | > 100 | > 100 | > 100 | – | – | – | – | – | –
CC(C)(C)NC(=O)/C(=C\Sc1ccccc1)c1ccc2c(c1)OCO2 | > 100 | > 100 | 59 | 54.8 | > 100 | > 100 | 43.3 | > 100 | – | – | – | – | – | –
O=C(/C=C/c1ccsc1)c1ccsc1 | 74.4 | 37.9 | > 100 | 66.4 | > 100 | 94.6 | – | 45.2 | – | – | – | – | – | –
CCN(CCO)CC1COc2ccccc2O1 (stereo unspecified) | > 100 | > 100 | > 100 | > 100 | > 100 | > 100 | > 100 | > 100 | – | – | – | – | – | –
CCN(C(=S)N[C@@H](Cc1ccccc1)C(=O)N[C@@H](CC(C)C)C(=O)OC)c1ccccc1 | > 100 | > 100 | – | > 100 | > 100 | > 100 | > 100 | > 100 | – | – | – | – | – | –
O=[N+]([O-])/C(C(Cl)=C(Cl)Cl)=C(\Nc1cccc2cccnc12)SCc1ccccc1 | – | 32.6 | 50.6 | 74.3 | 39.6 | – | – | 97.4 | – | – | – | – | – | –
NNC(=O)c1ccc[n+](CCc2ccccc2)c1 | > 100 | – | > 100 | > 100 | > 100 | > 100 | > 100 | – | – | – | – | – | – | –
COc1cc([N+](=O)[O-])c(OC)cc1-c1nc2sc(Cl)cn2c1/C=N/Nc1ccccn1 | > 50 | 16.8 | 19.4 | – | – | > 50 | > 50 | > 50 | 15.6 | 9.7 | 8.95 | > 50 | > 50 | > 50
COc1ccc(C#CC(=O)O)c(OC)c1 | > 100 | > 100 | > 100 | > 100 | > 100 | – | – | > 100 | – | – | – | – | – | –
COc1ccc(CC(O)CN2CCOCC2)cc1 (stereo unspecified) | > 100 | – | > 100 | > 100 | > 100 | > 100 | > 100 | > 100 | – | – | – | – | – | –
COc1ccc2nc3cc(Cl)ccc3c(NCCCNCCCNc3c4ccc(Cl)cc4nc4ccc(OC)cc34)c2c1 | 0.588 | 0.192 | 0.463 | 0.157 | 0.156 | – | 0.114 | 14.8 | – | – | – | – | – | –
Cc1c(S(=O)(=O)/N=C(\N)Nc2ccc(Cl)cc2)sc2ccc(Cl)cc12 | 39.5 | > 100 | 30.1 | 37.9 | 36.2 | 31.9 | 30.1 | – | – | – | – | – | – | –
CN(C)C(=S)S | > 100 | > 100 | > 100 | > 100 | > 100 | > 100 | > 20.4 | – | – | – | – | – | – | –
COc1cc(C2SCC(=O)N2c2ccc(NC(=O)c3ccc(N4C(=O)CSC4c4cc(OC)c(OC)c(OC)c4)cc3)cc2)cc(OC)c1OC (stereo unspecified) | > 100 | > 100 | – | > 100 | > 100 | > 100 | > 100 | > 100 | – | – | – | – | – | –
C1=CC2=CC=CC3c4nc5ccc6ccccc6c5nc4C(=C1)C23 (stereo unspecified) | > 100 | > 100 | – | > 100 | > 100 | > 100 | – | > 100 | – | – | – | – | – | –
C=CCOC(=O)CC[N+]1=CCC(c2ccccc2)(c2ccccc2)O1 | > 100 | > 100 | > 100 | > 100 | > 100 | > 100 | > 100 | – | – | – | – | – | – | –
C/C=C/C=C/c1nc(C#N)c(N)o1 | > 100 | > 100 | – | > 100 | > 100 | > 100 | > 100 | > 100 | – | – | – | – | – | –
